This is an account of results in PubChem BioAssay (NCI).

Some test systems named below: NCI-H23 lung; NCI/ADR-RES ovarian; HCC-2998 colon; OVCAR-8 ovarian; M14 melanoma; RXF 393 renal; BT-549 breast; NCI-H522 lung; HS 578T breast; DU-145 prostate.
Common to all, as to test: NCI anticancer screen, dose series, 48 h

Each structure is given as a SMILES string.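 Results reflect a 48-hour exposure of cells in 96-well plates to compound at five concentrations. The concentration for 50% growth inhibition is given as GI50. TGI denotes the concentration required for complete inhibition of growth.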

As for `N#CCCN1C/C(=C/c2ccc(Br)cc2)C(=O)/C(=C/c2ccc(Br)cc2)C1`, the GI50 was 2.64 µM with NCI-H23 lung; 3.47 µM in the assay with NCI/ADR-RES ovarian; 1.85 µM in the assay on HCC-2998 colon; 1.14 µM in the assay with OVCAR-8 ovarian; 1.99 µM in the assay on M14 melanoma; 1.55 µM in the assay on RXF 393 renal. The results for the GI50 in the assay on BT-549 breast and in the assay with NCI-H522 lung were 1.56 µM and 1.89 µM, respectively. Further, the TGI with NCI-H23 lung is 7.58 µM; in the assay on NCI/ADR-RES ovarian, greater than 100 µM; in the assay with HCC-2998 colon it was 3.31 µM; with OVCAR-8 ovarian, greater than 100 µM; with M14 melanoma, 4.15 µM; in the assay with RXF 393 renal, 3.04 µM. Moreover, the values for the TGI in the assay on BT-549 breast and in the assay with NCI-H522 lung were 3.04 µM and 3.81 µM, respectively.

`CCOC(=O)NC(=O)c1cn(C(CC)COC(=O)NCCCCCCNC(=O)OCC(CC)n2cc(C(=O)NC(=O)OCC)c(=O)[nH]c2=O)c(=O)[nH]c1=O` (stereo unspecified): the TGI in the assay on HCC-2998 colon, in the assay on OVCAR-8 ovarian, in the assay on M14 melanoma, with RXF 393 renal and in the assay on NCI-H522 lung was greater than 100 µM each time.

With `O=[N+]([O-])c1cccc(C2=NOC(C3CCCCC3)C2)c1` (stereo unspecified), the TGI in the assay on NCI-H23 lung, in the assay on HCC-2998 colon, in the assay on OVCAR-8 ovarian, in the assay on M14 melanoma and in the assay on NCI-H522 lung was greater than 100 µM each time.

Turning to `NC(=O)C(=O)CC(=O)c1ccccc1NC1=CC(=O)C(=O)c2ccccc21`, the TGI with NCI-H23 lung, in the assay on HCC-2998 colon, in the assay with OVCAR-8 ovarian, in the assay on M14 melanoma, in the assay with RXF 393 renal and in the assay on NCI-H522 lung was greater than 100 µM throughout.

On to `Nc1c(-c2ccccc2-c2c(N)[n+]([O-])c3ccccc3[n+]2[O-])[n+]([O-])c2ccccc2[n+]1[O-]`, for which the TGI in the assay with NCI-H23 lung is greater than 100 µM; with HCC-2998 colon, greater than 100 µM; with OVCAR-8 ovarian, 81.5 µM; with M14 melanoma, 30.1 µM; with RXF 393 renal it was greater than 100 µM; in the assay with NCI-H522 lung it was 6.87 µM.

Consider `CCCC(=O)C1=C(O)C(Cc2c(O)c(C)c(O)c(C(=O)CCC)c2O)=C(O)C(C)(C)C1=O`, for which the TGI is greater than 50 µM in the assay with NCI-H23 lung; 34.2 µM in the assay with HCC-2998 colon; greater than 50 µM with OVCAR-8 ovarian; greater than 50 µM in the assay with M14 melanoma; greater than 50 µM in the assay with RXF 393 renal; greater than 50 µM with BT-549 breast. Also, the TGI with HS 578T breast and with DU-145 prostate was greater than 50 µM each time.

Turning to `O=C(N/C(=C\c1ccc([N+](=O)[O-])cc1)c1nc2ccccc2[nH]1)c1ccccc1`, the TGI with NCI-H23 lung, in the assay with HCC-2998 colon, in the assay on OVCAR-8 ovarian, in the assay on M14 melanoma, in the assay on RXF 393 renal and in the assay with NCI-H522 lung was greater than 100 µM throughout.

In the case of `CC(C)CCC[C@@H](C)C1CCC2[C@@H]3CC=C4C[C@@H](C(=O)NCCN(C)C)CC[C@]4(C)C3CC[C@@]21C` (stereo partly specified), the TGI in the assay on NCI-H23 lung was 52.1 µM; in the assay with HCC-2998 colon, 65.6 µM; in the assay on OVCAR-8 ovarian it was greater than 100 µM; in the assay on M14 melanoma, 32.6 µM; in the assay with RXF 393 renal it was greater than 100 µM; with NCI-H522 lung it was greater than 100 µM.

For `Cc1cc2c(c(C(N)=O)c1C)-c1ccccc1C2=O`, the TGI with NCI-H23 lung, in the assay on HCC-2998 colon, in the assay on OVCAR-8 ovarian, in the assay on M14 melanoma, with RXF 393 renal and with NCI-H522 lung was greater than 100 µM throughout.

Consider `CC1=C(C#N)C(=O)CC(c2ccc(Cl)cc2)N(C)N1` (stereo unspecified), for which the TGI in the assay on NCI-H23 lung, in the assay with HCC-2998 colon, in the assay on M14 melanoma, with RXF 393 renal and in the assay with NCI-H522 lung was greater than 100 µM in each case.

Turning to `Cn1cc(-c2csc(-c3cn(CCCCN4CCCCC4)c4ccccc34)n2)c2cccnc21`, the GI50 with NCI-H23 lung was 1.66 µM; in the assay with HCC-2998 colon, 1.85 µM; with RXF 393 renal, 1.48 µM; with BT-549 breast, 1.75 µM; with HS 578T breast, 1.67 µM; with DU-145 prostate, 1.75 µM. Moreover, the TGI is 3.21 µM in the assay on NCI-H23 lung; 3.41 µM in the assay with HCC-2998 colon; 2.99 µM in the assay on RXF 393 renal; 3.37 µM with BT-549 breast; 4.16 µM in the assay on HS 578T breast; 3.2 µM in the assay with DU-145 prostate.

For the compound `CC(C)=C1CCC(CN(C)C)C1=O` (stereo unspecified), the TGI was greater than 100 µM in the assay on NCI-H23 lung; 33.2 µM in the assay on HCC-2998 colon; 49.4 µM with OVCAR-8 ovarian; 28.4 µM with M14 melanoma; 33.5 µM in the assay with RXF 393 renal; 0.4 µM in the assay with NCI-H522 lung.

On to `O=C(O)c1cccc(COc2ccc([N+](=O)[O-])cc2Cl)c1`, for which the GI50 was greater than 100 µM in the assay with NCI/ADR-RES ovarian; greater than 100 µM in the assay on HCC-2998 colon; 86.4 µM with OVCAR-8 ovarian; greater than 100 µM in the assay with M14 melanoma; 53.4 µM with BT-549 breast; 18.4 µM with NCI-H522 lung. Also, the GI50 with DU-145 prostate is greater than 100 µM. Further, the TGI in the assay on NCI/ADR-RES ovarian is greater than 100 µM; in the assay with HCC-2998 colon it was greater than 100 µM; in the assay on OVCAR-8 ovarian, greater than 100 µM; in the assay with M14 melanoma, greater than 100 µM; in the assay with BT-549 breast it was greater than 100 µM; in the assay on NCI-H522 lung, 93 µM. The TGI in the assay with DU-145 prostate was greater than 100 µM.

Regarding `CC(=O)N1CCN(c2ccc(OCC3COC(Cn4ccnc4)(c4ccc(Cl)cc4Cl)O3)cc2)CC1` (stereo unspecified), the TGI with HCC-2998 colon was greater than 100 µM; in the assay with OVCAR-8 ovarian, greater than 100 µM; in the assay with M14 melanoma, 52.1 µM; in the assay on RXF 393 renal, 57.8 µM; with NCI-H522 lung, 99.7 µM.

For the compound `COC(=O)/C([Se]c1c(C)cc(C)cc1C)=C(/[Se]c1c(C)cc(C)cc1C)C(=O)OC`, the TGI with NCI-H23 lung, in the assay with HCC-2998 colon, in the assay with OVCAR-8 ovarian, in the assay on M14 melanoma, with RXF 393 renal and with NCI-H522 lung was greater than 100 µM in each case.

As for `CCOCN1COCN(C)C1=O`, the TGI in the assay with NCI-H23 lung, in the assay on HCC-2998 colon, in the assay with OVCAR-8 ovarian and in the assay with M14 melanoma was greater than 100 µM each time.

Take `Nc1nc(-c2ccc(Cl)c([N+](=O)[O-])c2)cs1`: the TGI is greater than 100 µM in the assay on NCI-H23 lung; greater than 100 µM with HCC-2998 colon; greater than 100 µM in the assay on OVCAR-8 ovarian; greater than 100 µM in the assay on M14 melanoma; 90.1 µM with RXF 393 renal.
